Reference: ChEMBL document CHEMBL1201862, “PubChem BioAssay data set” (2004)
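A five-concentration, 48-hour dose response in 96-well plates underlies each endpoint, interpolated linearly between surrounding concentrations. Here, GI50 denotes the concentration required for 50% inhibition of growth.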 The source made the active and inactive calls. No stated cut-off is given here; in the data, active = GI50 up to about 1.1 µM and inactive = higher.

Tests used:
Experiment in all cases: NCI-60 cell line screen, 48 h
[1] = tested on: TK-10
[2] = tested on: OVCAR-3
[3] = tested on: Hs-578T
[4] = tested on: NCI/ADR-RES
[5] = tested on: NCI-H23
[6] = tested on: SNB-75
[7] = tested on: SF-295
[8] = tested on: UO-31
[9] = tested on: UACC-257
[10] = tested on: SK-OV-3
[11] = tested on: SF-268
[12] = tested on: COLO 205
[13] = tested on: RXF 393
[14] = tested on: T47D
[15] = tested on: CAKI-1
[16] = tested on: HCT-116
[17] = tested on: NCI-H460
[18] = tested on: A498
[19] = tested on: SK-MEL-2
[20] = tested on: KM12
[21] = tested on: OVCAR-5
[22] = tested on: MCF7
[23] = tested on: U-251
[24] = tested on: HOP-92
[25] = tested on: UACC-62
[26] = tested on: CCRF-CEM
[27] = tested on: IGROV-1
[28] = tested on: SF-539
[29] = tested on: PC-3
[30] = tested on: OVCAR-8
[31] = tested on: SK-MEL-5
[32] = tested on: HOP-62
[33] = tested on: MDA-N
[34] = tested on: ACHN
[35] = tested on: LOX IMVI
[36] = tested on: RPMI-8226
[37] = tested on: SNB-19
[38] = tested on: NCI-H226
[39] = tested on: HL-60
[40] = tested on: SW-620
[41] = tested on: MDA-MB-435
[42] = tested on: SN12C
[43] = tested on: BT-549
[44] = tested on: EKVX
[45] = tested on: M14
[46] = tested on: HCT-15
[47] = tested on: MDA-MB-231
[48] = tested on: DU-145
[49] = tested on: MOLT-4
[50] = tested on: OVCAR-4
[51] = tested on: NCI-H522
[52] = tested on: 786-0
[53] = tested on: SR
[54] = tested on: K562
[55] = tested on: A549
[56] = tested on: HT-29
[57] = tested on: Malme-3M
[58] = tested on: SK-MEL-28

Measured: GI50

COc1cccc(/N=N/N2CCCC2)c1
inactive: [1] > 100 µM | [2] > 100 µM | [3] > 100 µM | [4] > 100 µM | [5] > 100 µM | [6] > 100 µM | [7] 26.5 µM | [8] > 100 µM | [9] > 100 µM | [10] > 100 µM | [11] > 100 µM | [12] > 100 µM | [13] > 100 µM | [14] > 100 µM | [15] > 100 µM | [16] > 100 µM | [17] > 100 µM | [18] > 100 µM | [19] > 100 µM | [20] 9.46 µM | [21] > 100 µM | [22] > 100 µM | [23] > 100 µM | [24] > 100 µM | [25] 39.5 µM | [26] > 100 µM | [27] > 100 µM | [28] > 100 µM | [29] 27.2 µM | [30] > 100 µM | [31] > 100 µM | [32] > 100 µM | [33] 41.4 µM | [34] > 100 µM | [35] 40.2 µM | [36] 53.7 µM | [37] > 100 µM | [38] > 100 µM | [39] 34.6 µM | [40] > 100 µM | [41] 59.2 µM | [42] > 100 µM | [43] > 100 µM | [44] > 100 µM | [45] > 100 µM | [47] > 100 µM | [48] > 100 µM | [49] > 100 µM | [50] > 100 µM | [51] > 100 µM | [52] > 100 µM | [53] 40.2 µM | [54] > 100 µM
> 100 µM: [46]

CC(=O)OC1(C)N=NC2(CCCCC2)O1 (stereo not drawn)
> 100 µM: [46]
inactive: [1] > 100 µM | [2] > 100 µM | [3] > 100 µM | [4] > 100 µM | [5] > 100 µM | [6] > 100 µM | [55] > 100 µM | [7] > 100 µM | [9] > 100 µM | [10] > 100 µM | [11] > 100 µM | [12] > 100 µM | [13] > 100 µM | [14] > 100 µM | [56] > 100 µM | [15] > 100 µM | [16] > 100 µM | [17] > 100 µM | [18] > 100 µM | [19] > 100 µM | [20] > 100 µM | [21] > 100 µM | [22] > 100 µM | [23] > 100 µM | [24] > 100 µM | [25] > 100 µM | [26] > 100 µM | [27] > 100 µM | [28] > 100 µM | [29] > 100 µM | [30] > 100 µM | [31] > 100 µM | [32] > 100 µM | [33] > 100 µM | [34] > 100 µM | [35] > 100 µM | [36] > 100 µM | [37] > 100 µM | [57] > 100 µM | [38] > 100 µM | [39] 18.9 µM | [40] > 100 µM | [41] > 100 µM | [42] > 100 µM | [43] > 100 µM | [44] > 100 µM | [45] > 100 µM | [47] > 100 µM | [48] > 100 µM | [58] > 100 µM | [49] > 100 µM | [50] > 100 µM | [51] > 100 µM | [52] > 100 µM | [53] > 100 µM | [54] > 100 µM

CSCCC(C(=O)O)N(C)C (stereo not drawn)
> 100 µM: [46]
inactive: [1] > 100 µM | [2] > 100 µM | [3] > 100 µM | [4] > 100 µM | [5] > 100 µM | [6] > 100 µM | [55] > 100 µM | [7] > 100 µM | [8] > 100 µM | [9] > 100 µM | [10] > 100 µM | [11] > 100 µM | [12] > 100 µM | [13] > 100 µM | [14] > 100 µM | [56] > 100 µM | [15] > 100 µM | [16] > 100 µM | [17] > 100 µM | [18] > 100 µM | [19] > 100 µM | [20] > 100 µM | [21] > 100 µM | [22] > 100 µM | [23] > 100 µM | [24] > 100 µM | [25] > 100 µM | [26] > 100 µM | [27] > 100 µM | [28] > 100 µM | [29] > 100 µM | [30] > 100 µM | [31] > 100 µM | [32] > 100 µM | [33] > 100 µM | [34] > 100 µM | [35] > 100 µM | [36] > 100 µM | [37] > 100 µM | [57] > 100 µM | [38] > 100 µM | [39] > 100 µM | [40] > 100 µM | [41] > 100 µM | [42] > 100 µM | [43] > 100 µM | [44] > 100 µM | [45] > 100 µM | [47] > 100 µM | [48] > 100 µM | [58] > 100 µM | [50] > 100 µM | [51] > 100 µM | [52] > 100 µM | [53] > 100 µM | [54] 41.9 µM
